# Entries after “also recorded” stand apart in the source; their conditions may differ.
# What was measured:
# patients with RA [1] = details: etanercept by injection in combination with methotrexate; cited from earlier work
# healthy subjects = experiment: Phase 1 studies, tolerability; format: in vivo, human
# Experimental: (§1) Five Phase 1 studies of VX-702 in healthy subjects and one Phase 2a study evaluating the safety and tolerability of VX-702 in subjects with unstable angina pectoris (UAP) who were scheduled for percutaneous coronary intervention with or without stenting were performed. Multiple dose studies of VX-702 were conducted for up to 28 days.
# [2] = tested on: subjects with moderate or severe RA; experiment: Safety evaluations in the twelve-week RA study (adverse events, laboratory, Holter, ECG); format: in vivo, human; details: for Mean increase in QTcF: end of treatment, baseline approximately 400 msec, placebo −0.6 msec
# Experimental: VX-702 was examined in a randomized, placebo-controlled, multiple-dose, blinded, dose escalation study in 315 subjects with moderate or severe RA. Subjects were divided into 3 approximately equal-sized groups of 100-105 subjects each. In one group, subjects received 5 mg VX-702 once daily or 2.5 mg VX-702 twice daily (total 5 mg/day) for twelve weeks. Another group received 10 mg VX-702 once daily for twelve weeks. Another group subjects received placebo once daily for twelve weeks. Safety evaluations of subjects in the study were also conducted. These included physical examinations, including vital signs measurements (including blood pressure, heart rate, respiration rate, and temperature); clinical laboratory assessments (hematology, chemistry, and urinalysis testing); creatinine clearance; adverse events; Holter monitoring and electrocardiogram (ECG) (12-lead). Responses to treatment were evaluated by changes in ACR (e.g., ACR20) or EULAR criteria. Responses to treatment were measured at Weeks 2, 4, 6, 8, 10 and 12. Safety evaluations were also conducted at these time points. Holter monitoring and ECG were not performed at every time point. Four weeks after completion of the study, responses to treatment and safety evaluations were conducted on subjects.
# [3] = tested on: subjects with moderate or severe RA; experiment: Randomized, placebo-controlled, blinded twelve-week study in RA: responses to treatment (ACR, EULAR, DAS28); format: in vivo, human; details: for ACR 20 Response / EULAR Response (moderate or good) / Improvement from baseline in DAS28 / Mean reduction in morning stiffness / Percent Change in Swollen Joints / Percent Change in Tender Joints / Percent Improvement in DAS / Percent reduction in morning stiffness: End of Treatment (Week 12)
# Experimental: VX-702 was examined in a randomized, placebo-controlled, multiple-dose, blinded, dose escalation study in 315 subjects with moderate or severe RA.
# Subjects were divided into 3 approximately equal-sized groups of 100-105 subjects each. In one group, subjects received 5 mg VX-702 once daily or 2.5 mg VX-702 twice daily (total 5 mg/day) for twelve weeks. Another group received 10 mg VX-702 once daily for twelve weeks. Another group subjects received placebo once daily for twelve weeks.
# The subjects had to be between the ages of 18-75 years (inclusive) and have active RA of six months of duration or longer by the ACR revised criteria. The subjects had to have a C-reactive protein (CRP) serum levels of greater than 2 mg/dL at time of randomization, a swollen joint count of eight or greater (of 28) and tender joint count of 10 or greater (of 28). The subjects had to have had no prior treatment with Disease modifying anti-rheumatic drugs (DMARD) therapy or inadequate response to DMARD therapy. If a subject had received prior therapy with an antibody or binding protein to TNF (anti-TNF) or with recombinant IL-1 receptor antagonist (IL-1Ra), the subject may have discontinued treatment due to tolerability reasons but not have discontinued treatment because of an inadequate response. Subjects must also have discontinued DMARD therapy (except for sulfasalazine or hydroxychloroquine) for at least one month prior to randomization. Subjects could receive one NSAID and/or prednisone (≦10 mg/day) if they had been treated at a stable dose for at least one month prior to randomization.
# Responses to treatment were evaluated by changes in ACR (e.g., ACR20) or EULAR criteria. Responses to treatment were measured at Weeks 2, 4, 6, 8, 10 and 12. Safety evaluations were also conducted at these time points. Holter monitoring and ECG were not performed at every time point. Four weeks after completion of the study, responses to treatment and safety evaluations were conducted on subjects.
# ACR Preliminary Definition of Improvement in RA (ACR20):
# Required: ≧20% improvement in tender joint count • ≧20% improvement in swollen joint count And, at least 20% improvement in 3 of the following 5: • Subject pain assessment • Subject global assessment • Physician global assessment • Subject self-assessed disability
# Acute-phase reactant (CRP or ESR)
# The ACR50 and ACR70 responses require ≧50% and ≧70% improvement, respectively, in the same criteria as described for the ACR20 response.
# EULAR is described in Fransen et al., Clinical and Experimental Rheumatology 23 (Suppl. 39): S93-99, 2005, which is hereby incorporated by reference in its entirety. EULAR is based on the Disease Activity Score (DAS), a clinical index of RA disease activity that combines information from swollen joints, tender joints, the acute phase response and general health into one continuous measure of rheumatoid inflammation. DAS28 is an index similar to the original DAS, consisting of a 28 tender joint count (range 0-28), a 28 swollen joint count (range 0-28), erythrocyte sedimentation rate (ESR) and an optional general health assessment on a visual analogue scale (range 0-100).
# [4] = tested on: subjects with unstable angina pectoris (UAP); experiment: Phase 2a study, safety and tolerability; format: in vivo, human; details: up to 40 mg/day for 5 days
# Experimental: as §1
# Oral bioavailability = details: in vivo
# patients with RA [5] = details: standard of care in patients with RA; cited from earlier work
compound,measurement,setting,value
etanercept,Clinical remission rate,patients with RA [1],35%
NC(=O)c1ccc(N(C(N)=O)c2c(F)cccc2F)nc1-c1ccc(F)cc1F [VX-702],Severity of adverse events,"healthy subjects; Phase 1, healthy subjects",mild or moderate severity
same,Tolerability,"healthy subjects; dosages of up to 20 mg/day, multiple dose up to 28 days, healthy subjects",moderately to well tolerated
same,"Premature discontinuations for adverse events, patients","[2]; 5 mg VX-702, twelve weeks",3%
same,Mean increase in QTcF,[2]; 5 mg group,3 ms
same,"Premature discontinuations for adverse events, patients","[2]; 10 mg VX-702, twelve weeks",5%
same,Mean increase in QTcF,[2]; 10 mg group,6 ms
same,"Effects on laboratory parameters, including liver function tests","[2]; 5 or 10 mg/day, twelve weeks",No clinically significant effects
same,Severity of adverse events,"[2]; 5 or 10 mg/day, twelve weeks",generally mild to moderate; also recorded: generally rated mild or moderate
same,Tolerability,"[2]; 5 or 10 mg/day, twelve weeks",well tolerated
same,Holter monitoring: ventricular ectopic activity and arrhythmias versus placebo,"[2]; 24 to 72-hour continuous EKG, 6 times/patient",did not reveal an increased tendency for arrhythmias
same,"Skin disorders (rash, acne, itching), patients",[2]; VX-702-treated patients,approximately 9%
same,"Isolated serious adverse events, patients",[2]; VX-702-treated patients (5 and 10 mg groups),4-7%
same,"Infections (upper respiratory infections, gastroenteritis, nasopharyngitis, etc), patients","[2]; VX-702-treated patients, placebo 5%",10%
same,"Gastrointestinal disorders (nausea, vomiting, diarrhea), patients","[2]; VX-702-treated patients, placebo 6%",8%
same,Patients with maximal increase in QTcF of >60 msec,[2]; at any point in the study,No patient
same,Patients with ALT value above the upper limit of normal,"[2]; at each on-treatment visit, placebo 1-2%",2-4%
same,Patients discontinued for elevations in liver function tests,[2]; twelve weeks,No patients
same,Patients with ALT elevation to three times the upper limit of normal,[2]; twelve weeks,No patient
same,ACR 20 Response,[3]; 5 mg VX-702 per day,36%
same,EULAR Response (moderate or good),[3]; 5 mg VX-702 per day,40%
same,Improvement from baseline in DAS28,[3]; 5 mg VX-702 per day,−1.0
same,Mean reduction in morning stiffness,[3]; 5 mg VX-702 per day,-98 min
same,Percent Change in Swollen Joints,[3]; 5 mg VX-702 per day,−35%
same,Percent Change in Tender Joints,[3]; 5 mg VX-702 per day,−28%
same,Percent Improvement in DAS,[3]; 5 mg VX-702 per day,−15%
same,Percent reduction in morning stiffness,[3]; 5 mg VX-702 per day,−21.6%
same,EULAR Response (moderate or good),"[3]; 5 mg VX-702 per day, listed as 702",40%
same,Symptoms of RA compared to placebo,"[3]; 5 mg or 10 mg once daily for twelve weeks, Week 12",showed an improvement in their symptoms
same,ACR 20 Response,[3]; 10 mg VX-702 once daily,40%
same,EULAR Response (moderate or good),[3]; 10 mg VX-702 once daily,44%
same,Improvement from baseline in DAS28,[3]; 10 mg VX-702 once daily,−1.2
same,Mean reduction in morning stiffness,[3]; 10 mg VX-702 once daily,-82 min
same,Percent Change in Swollen Joints,[3]; 10 mg VX-702 once daily,−46%
same,Percent Change in Tender Joints,[3]; 10 mg VX-702 once daily,−36%
same,Percent Improvement in DAS,[3]; 10 mg VX-702 once daily,−18%
same,Percent reduction in morning stiffness,[3]; 10 mg VX-702 once daily,−2.7%
same,"ACR20 response rates, dose-response","[3]; placebo, 5 mg, 10 mg, Jonckheere-Terpstra test, p=0.02",dose-dependent statistically significant increase
same,Severity of adverse events,[4],mild to moderate severity
same,Oral bioavailability,Oral bioavailability,orally bioavailable
CN(Cc1cnc2nc(N)nc(N)c2n1)c1ccc(C(=O)N[C@@H](CCC(=O)O)C(=O)O)cc1 [methotrexate],Response (improvement) often observed,patients with RA [5],less than 50%
